# Test results published in patent US9835629B2, “Methods and reagents for biomolecule labeling, enrichment and gentle elution” (Pierce Biotechnology, Inc., priority 2012, dated 2017).
# Experiments:
# [1] = system: anti-TMT™ antibody; experiment: surface plasmon resonance competitive elution of anti-TMT antibody bound to a TMT-labeled surface; format: binding, mice; conditions: washing in μM to mM concentrations, room temperature
# Description: (§1) As the protein is labeled at nearly all amine sites, more sites on the protein are likely bound to the resin and more competitor reagent is necessary to elute the bound protein (FIG. 3B).
# For total cysteine alkylation, cell lysates and purified proteins were denatured, reduced, and labeled with excess iodoTMTzero or iodoTMTsixplex reagents prior to enzymatic digestion. For cysteine S-nitrosylation quantitation, samples were treated with nitrosylation donor agents (e.g. GSH-NO) and alkylated with methyl methanethiosulfonate (MMTS) to block unmodified sulfhydryl groups. […] An anti-TMT antibody resin was used for labeled peptide enrichment. Peptide samples were analyzed using a Thermo Scientific LTQ™ ORBITRAP XL mass spectrometer. Data were analyzed using Thermo Scientific PROTEOME DISCOVERER 1.3 software. Elution buffer was evaluated by surface plasmon resonance (SPR) using a TMT-derivatized CM5 chip on a GE Healthcare BIACORE 3000 instrument.
# [2] = system: anti-TMT™ antibody; experiment: enrichment and elution of S-nitrosylated, iodoTMT-labeled peptides with anti-TMT antibody; parameters: species or system mice; conditions: in vitro S-nitrosylated cell lysate
# Description: Peptides were washed with Tris buffered saline (TBS), […] detergent (Waters), or CHAPS detergent and eluted with 0.4% trifluoracetic acid (pH about 2), or washed with TBS and water prior to elution with DMP at the indicated concentrations and pH. Eluted peptides were analyzed by LC-MS/MS on a Thermo Scientific ORBITRAP XL and data was interpreted with Thermo Scientific PROTEOME DISCOVERER 1.3 to identify the eluted peptides and the number of iodoTMT labeled peptides specifically eluted (percentage shown above each bar). […] These peptide samples were enriched with the anti-TMT antibody, and samples of the load, the flowthrough, and the non-specific and specific elutions were assessed for peptide recovery and specificity.
# The cysteine-reactive […] tags and affinity enrichment reagents are used for the enrichment, detection, and quantification of low abundance protein modifications. […] These peptide samples were then enriched with the anti-TMT™ antibody, and a sample of the load, the flowthrough, and the non-specific and specific elutions were assessed for peptide recovery and specificity (FIG. 4B). […]
# For total cysteine alkylation, cell lysates and purified proteins were denatured, reduced, and labeled with excess iodoTMTzero or iodoTMTsixplex reagents prior to enzymatic digestion. […] Peptide samples were analyzed using a Thermo Scientific LTQ™ ORBITRAP XL mass spectrometer. […]
# [3] = system: Anti-TMT™ antibody resin; experiment: elution of TMT-labeled protein from anti-TMT antibody resin; parameters: species or system mice; conditions: micromolar to millimolar, intact protein labeled with amine-reactive TMT
# Text: as §1
# [4] = system: anti-TMT immobilized antibody resin; experiment: elution of iodoTMT-labeled peptides of a cell lysate from anti-TMT resin, LC-MS/MS; parameters: species or system mice
# Description: Peptides were washed with Tris buffered saline (TBS), […] detergent (Waters), or CHAPS detergent and eluted with 0.4% trifluoracetic acid (pH about 2), or washed with TBS and water prior to elution with DMP at the indicated concentrations and pH. Eluted peptides were analyzed by LC-MS/MS on a Thermo Scientific ORBITRAP XL and data was interpreted with Thermo Scientific PROTEOME DISCOVERER 1.3 to identify the eluted peptides and the number of iodoTMT labeled peptides specifically eluted (percentage shown above each bar). In FIG. 4B, a cell lysate was S-nitrosylated in vitro with nitroglutathione, the free thiols were irreversibly alkylated with iodoacetamide, the nitroso groups were reduced and selectively released with ascorbic acid, the newly exposed cysteines were irreversibly alkylated with iodoTMT, and the samples were then reduced to remove disulfide linkages, alkylated with iodoacetamide, and digested with trypsin. These peptide samples were enriched with the anti-TMT antibody, and samples of the load, the flowthrough, and the non-specific and specific elutions were assessed for peptide recovery and specificity.
# Cell lysates were labeled with an irreversible cysteine-reactive iodoacetyl TMT® reagent, digested, and then captured with the anti-TMT™ resin. The bound peptides were eluted non-specifically with different pH and detergent conditions or specifically with different concentrations and pH of DMP elution reagent (FIG. 4A). […] As DMP is not a biological molecule, there is no interference from endogenous levels. In contrast, biotinylated molecules are more difficult to recover and may result in the enrichment of interfering endogenously biotinylated molecules.
# [5] = iodoacetyl TMT-labeled cell lysate peptides
structure (smiles),measurement,setting,value
"C[C@@H]1CCC[C@H](C)N1 [DMP, cis-2,6-dimethyl piperidine]",elution of bound anti-TMT antibody from TMT-labeled surface,[1],elutes bound antibody within minutes
same,more peptides yielded than a low pH elution,[2]; specific elution,approximately 50%
same,specificity of the enrichment of iodoTMT-labeled peptides,[2]; specific elution (6% with low pH elution),21%
same,elution of bound TMT-labeled protein from anti-TMT antibody resin,[3],efficiently eluted
same,elution efficiency at high pH,"[4]; 10 mM, high pH",even more efficient
same,specificity of elution at high pH,"[4]; 10 mM, high pH",lower specificity of elution
same,number of peptides eluted versus non-specific elution conditions,[4]; [5],over 100 times
same,specificity of elution,[4]; [5],greater than 90%
